Marks after values point to notes of the source that are not given here.
Legend:
[1] = tested on: MRP7 localization in HEK/MRP7 cells; test: Immunofluorescence of MRP7; type: cell-based; conditions: 5 μM; 72 h
Protocol: HEK/MRP7 cells (1×10^4) were seeded in 24 well plates and cultured overnight. […] Cells were washed with PBS and fixed with 4% paraformaldehyde for 15 min at room temperature and then rinsed with PBS three times. Nonspecific reaction was blocked with 1% BSA for 1 h at room temperature. A polyclonal antibody D19 against MRP7 (1:200) was added and incubated overnight. […] DAPI was used for nuclear staining. Immunofluorescent images were taken with an inverted microscope (model IX70; Olympus, Center Valley, Pa.) with IX-FLA fluorescence and CCD camera.

KB-3-1 cells [2] = test: [^3H]-paclitaxel accumulation (Example 1); type: cell-based, human; conditions: 10 μM
Protocol: (§1) The cells were washed three times with ice-cold PBS, then suspended in fresh medium with or without reversal agents at 37° C. […] Each sample was placed in scintillation fluid and the radioactivity was measured in a Packard TRI-CARB1 1900CA liquid scintillation analyzer from Packard Instrument Company, Inc. (Downers Grove, Ill.).

ABCG2-482-R2 (ABCG2) = test: MTT cytotoxicity/reversal assay (Example 1); conditions: +10 μM reversal agent
Protocol: The KB-C2 and KB-3-1 were kindly provided by Dr. Akiyama (Kagoshima University, Japan). HEK293-pcDNA3.1 and wild-type HEK/ABCG2 transfected cells were established by selection with G418 after transfecting HEK293 with either (1) empty pcDNA3.1 vector or (2) pcDNA3.1 vector containing full length of ABCG2 coding arginine (R) at amino acid position 482, and were then cultured in a medium with 2 mg/ml of G418 (ABCG2-482-R2 cells). Similarly, the HEK/MRP1 (ABCC1) and HEK/ABCB1 cells were generated by transfecting the HEK293 cells with either the MRP1 expression vector or the ABCB1 expression vector. All of the cell lines were grown in Dulbecco's modified Eagle's medium (DMEM) supplemented with 10% bovine serum, 100 units/ml penicillin, and […] streptomycin in a humidified incubator containing 5% CO2 at 37° C.
(§2) The MTT assay was used to assess cytotoxicity. The cultured cells were harvested with trypsin and resuspended in a final concentration of 4×10^3 cells/well for KB-3-1; 7.5×10^3 cells/well for KB-C2; and 8×10^3 for all of the other cell lines used in this study. Cells were seeded evenly in 96-well multiplates. […] After 68 h of incubation, 20 μl of the MTT solution (4 mg/ml) was added to each well, and the plate was further incubated for 4 h at 37° C., allowing viable cells to convert the yellow-colored MTT into dark-blue formazan crystals. Subsequently, the medium was discarded, and 100 μl of DMSO was added into each well to dissolve the formazan crystals, generating purple color. The absorbance was determined at 570 nm by an OPSYS Microplate Reader from DYNEX Technologies, Inc. (Chantilly, Va.). […] The degree of the reversal of multidrug resistance (MDR) was calculated by dividing the IC50 of an anticancer drug, e.g., an antineoplastic or chemotherapeutic drug (agent, compound), in a cell type in the absence of a reversal agent by the IC50 of the anticancer drug in the same cell type in the presence of the reversal agent. The IC50 values were calculated from survival curves using the Bliss method.

KB-3-1 cells [3] = test: [^3H]-paclitaxel efflux (Example 1); type: cell-based, human; conditions: absence or presence of vardenafil
Protocol: as §1

[4] = MTT cytotoxicity/reversal assay (Example 1); conditions: human
Protocol: The KB-C2 and KB-3-1 were kindly provided by Dr. Akiyama (Kagoshima University, Japan). […] Similarly, the HEK/MRP1 (ABCC1) and HEK/ABCB1 cells were generated by transfecting the HEK293 cells with either the MRP1 expression vector or the ABCB1 expression vector. All of the cell lines were grown in Dulbecco's modified Eagle's medium (DMEM) supplemented with 10% bovine serum, 100 units/ml penicillin, and […] streptomycin in a humidified incubator containing 5% CO2 at 37° C.
as §2

KB-V1 = test: MTT cytotoxicity/reversal assay (Example 2); type: cell-based, human; conditions: alone
Protocol: (§3) The ABCB1-overexpressing drug resistant cell line KB-V1 (generously provided by Dr. Gottesman, NCI, NIH) was established by a stepwise concentration increase of vinblastine in the culture medium of KB-3-1 cells and subsequently culturing these cells in medium with 1 μg/mL of vinblastine. An ABCC1-overexpressing MDR cell line, KB-CV60, was also derived from KB-3-1 cells and was maintained in medium with 1 μg/mL of cepharanthine and 60 ng/mL of vincristine. Both KB-C2 and KB-CV60 cell lines were kindly provided by Dr. Akiyama (Kagoshima University, Japan). HEK293/pcDNA3.1, ABCG2-482-R5, ABCG2-482-G2, and ABCG2-482-T7 cells were established by selection with 2 mg/mL G418 after transfecting HEK293 with either (1) empty pcDNA3.1 vector or (2) pcDNA3.1 vector containing full length ABCG2 coding either (2a) wild-type arginine (R) or mutant (2b) glycine (G) or (2c) threonine (T) at amino acid position 482, respectively. The wild-type ABCG2-overexpressing drug-resistant cell line MCF-7/Flv1000 was cultured in the medium with 1 μM of flavopiridol. […] Another G482 mutant ABCG2-overexpressing drug resistant cell line, S1-M1-80, was maintained in the medium with 80 μM of mitoxantrone. […] All the cell lines were grown as adherent monolayers in flasks with DMEM (Dulbecco's modified Eagle's medium) culture medium (Hyclone Co.) containing 10% bovine serum at 37° C. in a humidified atmosphere of 5% CO2.
(§4) Cells in 96-well plates were preincubated with or without the reversal agents for 1 h and then different concentrations of chemotherapeutic drugs were added into designated wells. After 68 h of incubation, MTT solution (4 mg/mL) was added to each well, and the plate was further incubated for 4 h, allowing viable cells to change the yellow-colored MTT into dark-blue formazan crystals. Subsequently the medium was discarded, and […] of DMSO was added into each well to dissolve the formazan crystals. The absorbance was determined at 570 nm by an OPSYS MR Microplate Reader from DYNEX Technologies, Inc.

KB-C2 = test: MTT cytotoxicity/reversal assay (Example 2); type: cell-based, human; conditions: alone
Protocol: as §3, §4

KB-3-1 = test: MTT cytotoxicity/reversal assay (Example 2); type: cell-based, human; conditions: alone
Protocol: as §3, §4

SMILES	MRP7 protein localization in plasma membranes [1]	effect on paclitaxel accumulation (KB-3-1 cells [2])	fold reversal, SN-38 (ABCG2-482-R2 (ABCG2))	change in effluxed paclitaxel (KB-3-1 cells [3])	IC50 at 68 h [4] [µM]	fold-resistance, paclitaxel (KB-V1)	fold-resistance, paclitaxel (KB-C2)	fold-resistance, paclitaxel (KB-3-1)
CCCc1nc(C)c2c(=O)[nH]c(-c3cc(S(=O)(=O)N4CCN(CC)CC4)ccc3OCC)nn12 [Vardenafil, vardenafil]	no alteration of MRP7 protein localization	without altering the levels	(0.97)	No significant change				
CC(=O)O[C@H]1C(=O)[C@@]2(C)[C@H]([C@H](OC(=O)c3ccccc3)[C@]3(O)C[C@H](OC(=O)[C@H](O)[C@@H](NC(=O)c4ccccc4)c4ccccc4)C(C)=C1C3(C)C)[C@]1(OC(C)=O)CO[C@@H]1C[C@@H]2O [Paclitaxel, paclitaxel]					219 ± 13.2	(1079.6)	(788.5)	(1.0)^c
CN1CC(=O)N2[C@H](c3ccc4c(c3)OCO4)c3[nH]c4ccccc4c3C[C@@H]2C1=O [Tadalafil, tadalafil]	no alteration of MRP7 protein localization		(1.04)					

From patent publication US8673914B2, “Use of phosphodiesterase inhibitors for treating multidrug resistance” (St. John's University, priority 2011, dated 2014)
